Results taken from patent US20120220562A1, “Anti-Viral Compounds” (ABBOTT LABAORATORIES, priority 2011, published 2012).

Test system: HCV 1b-Con1 replicon
Assay: HCV 1b-Con1 replicon assay in the presence of 5% FBS
Type: cell-based
Settings: Hepatitis C virus

Row | Compound | EC50 [pM]
1 | COC(=O)N[C@H](C(=O)N1CCC[C@H]1c1nc2cc([C@H]3CC[C@H](c4ccc5[nH]c([C@@H]6CCCN6C(=O)[C@@H](NC(=O)OC)C(C)C)nc5c4)N3c3ccc(-c4ccccc4)cc3)ccc2[nH]1)C(C)C [Example 3.5, methyl {(2S)-1-[(2S)-2-{5-[(2R,5R)-1-(biphenyl-4-yl)-5-{2-[(2S)-1-{(2S)-2-[(methoxycarbonyl)amino]-3-methylbutanoyl}pyrrolidin-2-yl]-1H-benzimidazol-5-yl}pyrrolidin-2-yl]-1H-benzimidazol-2-yl}pyrrolidin-1-yl]-3-methyl-1-oxobutan-2-yl}carbamate] | < 100
2 | COC(=O)N[C@H](C(=O)N1CCC[C@H]1c1nc2cc([C@H]3CC[C@H](c4ccc5[nH]c([C@@H]6CCCN6C(=O)[C@@H](NC(=O)OC)C(C)C)nc5c4)N3c3ccc(OCc4ccccc4)cc3)ccc2[nH]1)C(C)C [Example 4.41, methyl {(2S)-1-[(2S)-2-{5-[(2R,5R)-1-[4-(benzyloxy)phenyl]-5-{2-[(2S)-1-{(2S)-2-[(methoxycarbonyl)amino]-3-methylbutanoyl}pyrrolidin-2-yl]-1H-benzimidazol-5-yl}pyrrolidin-2-yl]-1H-benzimidazol-2-yl}pyrrolidin-1-yl]-3-methyl-1-oxobutan-2-yl}carbamate] | < 100
3 | COC(=O)N[C@H](C(=O)N1CCC[C@H]1c1nc2ccc([C@H]3CC[C@H](c4ccc5nc([C@@H]6CCCN6C(=O)[C@@H](NC(=O)OC)C(C)C)[nH]c5c4)N3c3ccc(N4CCC(F)(c5ccccc5)CC4)cc3)cc2[nH]1)C(C)C [Example 4.36, methyl {(2S)-1-[(2S)-2-{6-[(2R,5R)-1-[4-(4-fluoro-4-phenylpiperidin-1-yl)phenyl]-5-{2-[(2S)-1-{(2S)-2-[(methoxycarbonyl)amino]-3-methylbutanoyl}pyrrolidin-2-yl]-1H-benzimidazol-6-yl}pyrrolidin-2-yl]-1H-benzimidazol-2-yl}pyrrolidin-1-yl]-3-methyl-1-oxobutan-2-yl}carbamate] | < 100
4 | COC(=O)N[C@H](C(=O)N1CCC[C@H]1c1nc2cc([C@H]3CC[C@H](c4cc5nc([C@@H]6CCCN6C(=O)[C@@H](NC(=O)OC)C(C)C)[nH]c5cc4F)N3c3cc(F)c(N4CCCCC4)c(F)c3)c(F)cc2[nH]1)C(C)C [Example 6.10, methyl {(2S)-1-[(2S)-2-{5-[(2R,5R)-1-[3,5-difluoro-4-(piperidin-1-yl)phenyl]-5-{6-fluoro-2-[(2S)-1-{(2S)-2-[(methoxycarbonyl)amino]-3-methylbutanoyl}pyrrolidin-2-yl]-1H-benzimidazol-5-yl}pyrrolidin-2-yl]-6-fluoro-1H-benzimidazol-2-yl}pyrrolidin-1-yl]-3-methyl-1-oxobutan-2-yl}carbamate] | < 100
5 | COC(=O)N[C@H](C(=O)N1CCC[C@H]1c1nc2cc(F)c([C@H]3CC[C@H](c4cc5[nH]c([C@@H]6CCCN6C(=O)[C@@H](NC(=O)OC)C(C)C)nc5cc4F)N3c3cc(F)c(N4CC(C)CC(C)C4)c(F)c3)cc2[nH]1)C(C)C (stereo partly drawn) [Example 2.16, methyl {(2S)-1-[(2S)-2-{5-[(5R)-1-[4-(3,5-dimethylpiperidin-1-yl)-3,5-difluorophenyl]-5-{6-fluoro-2-[(2S)-1-{(2S)-2-[(methoxycarbonyl)amino]-3-methylbutanoyl}pyrrolidin-2-yl]-1H-benzimidazol-5-yl}pyrrolidin-2-yl]-6-fluoro-1H-benzimidazol-2-yl}pyrrolidin-1-yl]-3-methyl-1-oxobutan-2-yl}carbamate] | < 100
6 | COC(=O)N[C@H](C(=O)N1CCC[C@H]1c1nc2cc([C@@H]3CC[C@@H](c4ccc5[nH]c([C@@H]6CCCN6C(=O)[C@@H](NC(=O)OC)[C@@H](C)OC)nc5c4)N3c3ccc(N4CCCCC4)c(F)c3)ccc2[nH]1)[C@@H](C)OC [Example 3.16, methyl {(2S,3R)-1-[(2S)-2-{5-[(2S,5S)-1-[3-fluoro-4-(piperidin-1-yl)phenyl]-5-(2-{(2S)-1-[N-(methoxycarbonyl)-O-methyl-L-threonyl]pyrrolidin-2-yl}-1H-benzimidazol-5-yl)pyrrolidin-2-yl]-1H-benzimidazol-2-yl}pyrrolidin-1-yl]-3-methoxy-1-oxobutan-2-yl}carbamate] | 100 to 1000
7 | COC(=O)N[C@H](C(=O)N1CCC[C@H]1c1nc2cc([C@H]3CC[C@@H](c4cc5nc([C@@H]6CCCN6C(=O)[C@@H](NC(=O)OC)C(C)C)[nH]c5cc4F)N3c3cnc(N4CCC(c5ccccc5)CC4)nc3)c(F)cc2[nH]1)C(C)C [Example 3.46, methyl {(2S)-1-[(2S)-2-(6-fluoro-5-{(2R,5S)-5-{6-fluoro-2-[(2S)-1-{(2S)-2-[(methoxycarbonyl)amino]-3-methylbutanoyl}pyrrolidin-2-yl]-1H-benzimidazol-5-yl}-1-[2-(4-phenylpiperidin-1-yl)pyrimidin-5-yl]pyrrolidin-2-yl}-1H-benzimidazol-2-yl)pyrrolidin-1-yl]-3-methyl-1-oxobutan-2-yl}carbamate] | < 100
8 | COC(=O)N[C@H](C(=O)N1CCC[C@H]1c1nc2cc([C@H]3CC[C@H](c4cc5nc([C@@H]6CCCN6C(=O)[C@@H](NC(=O)OC)C(C)C)[nH]c5cc4F)N3c3cc(F)c(N4CCN(c5ncccn5)CC4)c(F)c3)c(F)cc2[nH]1)C(C)C [Example 4.60, methyl {(2S)-1-[(2S)-2-{5-[(2R,5R)-1-{3,5-difluoro-4-[4-(pyrimidin-2-yl)piperazin-1-yl]phenyl}-5-{6-fluoro-2-[(2S)-1-{(2S)-2-[(methoxycarbonyl)amino]-3-methylbutanoyl}pyrrolidin-2-yl]-1H-benzimidazol-5-yl}pyrrolidin-2-yl]-6-fluoro-1H-benzimidazol-2-yl}pyrrolidin-1-yl]-3-methyl-1-oxobutan-2-yl}carbamate] | < 100
9 | COC(=O)N[C@H](C(=O)N1CCC[C@H]1c1ncc(-c2cccc(C3(c4cccc(-c5cnc([C@@H]6CCCN6C(=O)[C@@H](NC(=O)OC)C(C)C)[nH]5)c4)CN(c4ccc(C(C)(C)C)cc4)C3)c2)[nH]1)C(C)C [Example 12.1, methyl {(2S)-1-[(2S)-2-(5-{3-[1-(4-tert-butylphenyl)-3-(3-{2-[(2S)-1-{(2S)-2-[(methoxycarbonyl)amino]-3-methylbutanoyl}pyrrolidin-2-yl]-1H-imidazol-5-yl}phenyl)azetidin-3-yl]phenyl}-1H-imidazol-2-yl)pyrrolidin-1-yl]-3-methyl-1-oxobutan-2-yl}carbamate] | 1000 to 10000
10 | COC(=O)N[C@H](C(=O)N1CCC[C@H]1c1nc2cc([C@H]3CC[C@H](c4ccc5[nH]c(C6CCCC6)nc5c4)N3c3cc(F)c(N4CCC(c5ccccc5)CC4)c(F)c3)ccc2[nH]1)C(C)C [Example 11.2, methyl {(2S)-1-[(2S)-2-(5-{(2R,5R)-5-(2-cyclopentyl-1H-benzimidazol-5-yl)-1-[3,5-difluoro-4-(4-phenylpiperidin-1-yl)phenyl]pyrrolidin-2-yl}-1H-benzimidazol-2-yl)pyrrolidin-1-yl]-3-methyl-1-oxobutan-2-yl}carbamate] | < 100
11 | COC(=O)N[C@H](C(=O)N1CCC[C@H]1c1nc2ccc([C@H]3CC[C@H](c4ccc5nc([C@@H]6CCCN6C(=O)[C@@H](NC(=O)OC)C(C)C)[nH]c5c4)N3c3cc(F)c(C4CC4)c(F)c3)cc2[nH]1)C(C)C [Example 4.15, methyl {(2S)-1-[(2S)-2-{6-[(2R,5R)-1-(4-cyclopropyl-3,5-difluorophenyl)-5-{2-[(2S)-1-{(2S)-2-[(methoxycarbonyl)amino]-3-methylbutanoyl}pyrrolidin-2-yl]-1H-benzimidazol-6-yl}pyrrolidin-2-yl]-1H-benzimidazol-2-yl}pyrrolidin-1-yl]-3-methyl-1-oxobutan-2-yl}carbamate] | < 100
12 | COC(=O)N[C@H](C(=O)N1C[C@@H](OC)C[C@H]1c1nc2cc([C@H]3CC[C@H](c4ccc5[nH]c([C@@H]6C[C@H](OC)CN6C(=O)[C@@H](NC(=O)OC)C(C)C)nc5c4)N3c3cc(F)c(N4CCCCC4)c(F)c3)ccc2[nH]1)C(C)C [Example 3.7, methyl {(2S)-1-[(2S,4S)-2-{5-[(2R,5R)-1-[3,5-difluoro-4-(piperidin-1-yl)phenyl]-5-{2-[(2S,4S)-4-methoxy-1-{(2S)-2-[(methoxycarbonyl)amino]-3-methylbutanoyl}pyrrolidin-2-yl]-1H-benzimidazol-5-yl}pyrrolidin-2-yl]-1H-benzimidazol-2-yl}-4-methoxypyrrolidin-1-yl]-3-methyl-1-oxobutan-2-yl}carbamate] | < 100
13 | COC(=O)N[C@H](C(=O)N1CCC[C@H]1c1nc2cc([C@H]3CC[C@H](c4ccc5[nH]c([C@@H]6CCCN6C(=O)[C@@H](NC(=O)OC)C(C)C)nc5c4)N3c3cc(F)c(N4CCCCC4)c(F)c3F)ccc2[nH]1)C(C)C [Example 4.7, methyl {(2S)-1-[(2S)-2-(5-{(2R,5R)-5-{2-[(2S)-1-{(2S)-2-[(methoxycarbonyl)amino]-3-methylbutanoyl}pyrrolidin-2-yl]-1H-benzimidazol-5-yl}-1-[2,3,5-trifluoro-4-(piperidin-1-yl)phenyl]pyrrolidin-2-yl}-1H-benzimidazol-2-yl)pyrrolidin-1-yl]-3-methyl-1-oxobutan-2-yl}carbamate] | < 100
14 | COC(=O)N[C@H](C(=O)N1CCC[C@H]1c1nc2cc([C@H]3CC[C@H](c4cc5nc([C@@H]6CCCN6C(=O)[C@@H](NC(=O)OC)[C@@H](C)OC)[nH]c5cc4F)N3c3cc(F)c(N4CCCCC4)c(F)c3)c(F)cc2[nH]1)[C@@H](C)OC [Example 3.36, methyl {(2S,3R)-1-[(2S)-2-{5-[(2R,5R)-1-[3,5-difluoro-4-(piperidin-1-yl)phenyl]-5-(6-fluoro-2-{(2S)-1-[N-(methoxycarbonyl)-O-methyl-L-threonyl]pyrrolidin-2-yl}-1H-benzimidazol-5-yl)pyrrolidin-2-yl]-6-fluoro-1H-benzimidazol-2-yl}pyrrolidin-1-yl]-3-methoxy-1-oxobutan-2-yl}carbamate] | < 100
15 | COC(=O)N[C@H](C(=O)N1[C@H](c2nc3cc([C@H]4CC[C@H](c5ccc6[nH]c([C@@H]7C[C@@H]8CCC[C@@H]8N7C(=O)[C@@H](NC(=O)OC)C7CCOCC7)nc6c5)N4c4cc(F)c(N5CCCCC5)c(F)c4)ccc3[nH]2)C[C@@H]2CCC[C@@H]21)C1CCOCC1 [Example 3.32, dimethyl ({(2R,5R)-1-[3,5-difluoro-4-(piperidin-1-yl)phenyl]pyrrolidine-2,5-diyl}bis{1H-benzimidazole-5,2-diyl(2S,3aS,6aS)hexahydrocyclopenta[b]pyrrole-2,1(2H)-diyl[(1S)-2-oxo-1-(tetrahydro-2H-pyran-4-yl)ethane-2,1-diyl]})biscarbamate] | < 100
